Laboratory results: patent publication US20250319117A1, “METHODS AND COMPOSITIONS FOR TREATING FIBROSIS” (THE UNIVERSITY OF CHICAGO, priority 2021, published 2025)
Each block holds one compound with its values, some of them ahead of it.

Columns and labels:
fibrosis = details: literature [4], [6]; cited from earlier work
[1] = target: Integrin-αM (human, on monocyte-derived myofibroblasts) (human) (UniProt P11215); experiment: cell-based or functional assay
[2] = system: mouse monocyte-derived myofibroblasts; experiment: Flow cytometry of mouse monocyte-derived myofibroblasts treated with siRNA; format: cell-based; details: 50 nM siRNA mixtures or individual siRNAs (FIG. 27D)
Procedure: (§1) Human and mouse monocytes were cultured as previously described, using serum-free media (SFM). Briefly, SFM for human cells is composed of fibrolife (Lifeline, Frederick, MD), with 1× ITS-3 (Sigma, St. Louis, MO), 1× HEPES buffer (Sigma), 1× non-essential amino acids (Sigma), 1× sodium pyruvate (Sigma), and penicillin-streptomycin with glutamate (Sigma). For mice, 2× concentrations of ITS-3, HEPES buffer, non-essential amino acids, and sodium pyruvate are added. For mouse monocytes, 50 mM beta-mercaptoenthanol (ThermoFisher) was also added, as were pro-fibrotic supplements M-CSF (25 ng/ml, Peprotech, Rocky Hill, NJ) and IL-13 (50 ng/ml). Additionally, M-CSF and IL-13 were refreshed in the media of mouse monocytes after 3 days of culture.
Accell Silencing RNA (siRNA, Dharmacon, Lafayette, CO) is specifically engineered to penetrate cells without the use of transfection reagents, due to a cholesterol modification at one terminus of the sequence. […] Thus, Accell siRNA targets all cells in a population, not just those that are replicating. […] Lastly, Accell siRNA contains a modification that inhibits enzymatic digestion within cells. Thus, Accell siRNA made a natural choice for this experiment, and all siRNAs used in this study are Accell siRNA. siRNA was resuspended in RNAse-free ultrapure water, as per the manufacturer's instructions. […]

[3] = system: mouse fibroblast-derived myofibroblasts; experiment: Flow cytometry of mouse fibroblast-derived myofibroblasts treated with siRNA; format: cell-based; details: 50 nM siRNA
Procedure: Human fibroblasts (MRC-5, ATCC, Manassas, VA) and mouse fibroblasts (NIH-3T3, ATCC) were cultured in SFM composed for human cells, with 1× concentrations of additives. TGF-b (Peprotech) was added to induce myofibroblast formation at 5 ng/ml. Cells were cultured at 10,000/cm^2, and TGF-β was refreshed in cultures weekly to maintain the myofibroblast phenotype.
The SMARTpool of siRNA targeting human talin2 contained four target sequences, while the anti-parallel corresponding siRNA sequences actually silenced the mRNA. Target sequences: #1 (CCAGAAAACUGAACGAUUA) (SEQ ID NO:29), #2 (GCCCUGUCCUUAAAGAUUU) (SEQ ID NO:30), #3 (CGACUGUGGUUAAAUACUC) (SEQ ID NO:31), and #4 (CGAGAAAGCUUGUGAGUUU) (SEQ ID NO:32). SMARTpool targeting mouse talin2 also contained four target sequences: #1 […], #2 (CUGGAAAAUUCAGUGAUGA) (SEQ ID NO:26), #3 (CCCUGGAUUUUGAAGAACA) (SEQ ID NO:27), and #4 (CCAUCGAGUACAUAAAACA) (SEQ ID NO:28). Control non-targeting SMARTpools contained 4 target sequences, including: #1 (CCAGAAAACUGAACGAUUA) (SEQ ID NO:29), #2 (GCCCUGUCCUUAAAGAUUU) (SEQ ID NO:30), #3 (CGACUGUGGUUAAAUACUC) (SEQ ID NO:31), and #4 (CGAGAAAGCUUGUGAGUUU) (SEQ ID NO:32). Individual siRNA tested in mice was talin2 siRNA #2, target: 5′ CUGGAAAAUUCAGUGAUGA 3′ (SEQ ID NO:26), anti-sense: 5′ UCAUCACUGAAUUUUCCAG 3′ (SEQ ID NO:37). […]

[4] = system: bleomycin insult to mouse lungs; experiment: Bleomycin lung fibrosis model, lung instillation of talin2 siRNA; format: in vivo
[5] = target: Integrin αMβ2 (human, MAC1, on monocyte-derived myofibroblasts) (human) (UniProt P11215); experiment: cell-based or functional assay
talin1 and talin2 = details: literature [83]; cited from earlier work
[6] = system: human monocyte-myofibroblast differentiation; experiment: Human monocyte-myofibroblast de-differentiation assessed by morphology; format: cell-based; details: added to culture of human monocyte-myofibroblasts (FIG. 1A, 1B)
Procedure: Monocytes were purified from PBMCs by use of a negative selection kit for human monocytes (Stemcell, Cambridge, MA), per the manufacturer's instructions. Approximately 20 million monocytes were purified from each filter. Monocytes were then washed by PBS using five successive 300×G centrifugation steps, in order to remove EDTA from the resulting population. Monocytes were checked for purity using flow cytometry, and average purity was above 95%. Monocytes were cultured immediately following purification, at 100,000 monocytes/cm^2.
as §1, with “mouse monocytes,” for “mice,”, “were added, with” for “are added. For mouse monocytes,”, “μM β-mercaptoenthanol” for “mM beta-mercaptoenthanol”, “and” for “was also added, as were”, “ng/ml) to induce myofibroblast differentiation.” for “ng/ml).”, “culture. Monocytes were allowed to differentiate for 5 days, and counted based on morphology as previously described. […]” for “culture.”

[7] = system: human monocyte-derived myofibroblasts; experiment: Flow cytometry of human monocyte-derived myofibroblasts treated with antibodies or leukadherin; format: cell-based; details: antibody 500 ng/ml, leukadherin 2 ng/ml
Source text: (§2) Myofibroblasts were de-differentiated by addition of antibodies (α-αMβ2, α-αM, α-α3) for 7 days after the 5 day differentiation was completed. Antibodies were free of azide, glycerol, and other preservatives.
(§3) Cultured myofibroblasts were lifted with ice cold trypsin-EDTA (Sigma), followed by mechanical agitation by a rubber policeman. Myofibroblasts were fixed and permeabilized using Cytofix/Cytoperm (BD biosciences, Franklin Lakes, NJ), and live-dead stained (live-dead aqua, ThermoFisher) per manufacturer's instructions. Antibodies used were α-collagen I (Biolegend, San Diego, CA), anti-α smooth muscle actin (αSMA) (R and D systems, Minneapolis, MN), α-ki-67 (BD biosciences), and α-talin2 (R and D systems). Compensation was performed via UltraComp beads (ThermoFisher) per the manufacturer's instructions.

[8] = system: human monocyte-derived myofibroblasts; experiment: Legendplex ELISA of conditioned media, human monocyte-derived myofibroblasts; format: cell-based; details: antibody 500 ng/ml, leukadherin 2 ng/ml
Procedure: Supernatant from cultured human and mouse myofibroblasts were thawed at 4 C, and centrifuged at 4 C and 10,000×G to pellet cell debris. Supernatant was taken and added to 96 well round bottom plates, in duplicate. Legendplex (Biolegend) beads against general inflammation markers were added, according to the manufacturer's instructions. Sample readouts were normalized to each individual donor control.

[9] = system: mouse monocyte-derived myofibroblasts; experiment: Mouse monocyte-derived myofibroblast de-differentiation assessed by morphology; format: cell-based; details: 1 week (FIG. 2A, 2B)
Source text: Spleens were pushed through a 100 µm filter to disassociate the cells. Monocytes were purified from disassociated cells by use of a negative selection kit (Stemcell), following the manufacturer's instructions. The purified monocytes were then washed by PBS using five successive 300×G centrifugation steps, in order to remove EDTA from the resulting population. Monocytes were checked for purity using flow cytometry, and average purity was above 95%. The average yield was 1.5 million monocytes per spleen. Monocytes were cultured immediately following purification, at 250,000 monocytes/cm^2.
Human and mouse monocytes were cultured as previously described, using serum-free media (SFM). Briefly, SFM for human cells is composed of fibrolife (Lifeline, Frederick, MD), with 1× ITS-3 (Sigma, St. Louis, MO), 1× HEPES buffer (Sigma), 1× non-essential amino acids (Sigma), 1× sodium pyruvate (Sigma), and penicillin-streptomycin with glutamate (Sigma). For mouse monocytes, 2× concentrations of ITS-3, HEPES buffer, non-essential amino acids, and sodium pyruvate were added, with 50 μM β-mercaptoenthanol (ThermoFisher) and pro-fibrotic supplements M-CSF (25 ng/ml, Peprotech, Rocky Hill, NJ) and IL-13 (50 ng/ml) to induce myofibroblast differentiation. […] Monocytes were allowed to differentiate for 5 days, and counted based on morphology as previously described. […]

[10] = system: mouse monocyte-derived myofibroblasts; experiment: Flow cytometry of mouse monocyte-derived myofibroblasts treated with antibodies or leukadherin; format: cell-based; details: antibody 500 ng/ml
Source text: as §2, §3

Compound: COC(=O)c1ccc2c(c1)NC(=O)/C2=C(\Nc1ccc(N(C)C(=O)CN2CCN(C)CC2)cc1)c1ccccc1 [nintedanib]
effect on progression of fibrosis (fibrosis): slow, but do not reverse, the progression of fibrosis

IC50 for human monocyte-myofibroblast differentiation (de-differentiation by morphology) [1]: 59.7 ng/ml
Compound: α-αM (clone ICRF44) (antibody)

Compound: talin2 siRNA #2: individual Accell siRNA against mouse talin2; target CUGGAAAAUUCAGUGAUGA (SEQ ID NO:26), antisense UCAUCACUGAAUUUUCCAG (SEQ ID NO:37) (Accell modifications, chemistry not fully specified)
αSMA and collagen I double-positive cells / myofibroblast differentiation [2]: inhibited myofibroblast differentiation by itself | αSMA and collagen I double-positive myofibroblasts ([3]; mouse cell cultures (FIG. 28C)): most reduced both αSMA and collagen I double-positive | talin2 positive myofibroblasts ([3]; mouse cell cultures (FIG. 28D)): most reduced both αSMA and collagen I double-positive (FIG. 28C) and talin2 positive (FIG. 28D) myofibroblasts | mouse weight ([4]; 200 nM by lung instillation at 7, 9, 11, 14, 16, 18 days post bleomycin, to day 21 (FIG. 29A)): showed a lesser transient weight decrease than did the controls | amount of collagen in the lungs (hydroxyproline assay) ([4]; 200 nM by lung instillation x6, day 21 (FIG. 29B-C)): reduced the amount of collagen in the lungs | blinded Ashcroft scoring of Masson's trichrome-stained lung sections ([4]; 200 nM by lung instillation x6, day 21 (FIG. 29D)): improved the histological readout of lung fibrosis | lung fibrosis in Masson's trichrome images ([4]; vs non-targeting siRNA and untreated fibrotic lungs (FIG. 29E-L)): rescued lung fibrosis compared to non-targeting siRNA and untreated fibrotic lungs

IC50 for human monocyte-myofibroblast differentiation (de-differentiation by morphology) [5]: 63.3 ng/ml
Compound: α-αMβ2 (MAC1, clone CBRM1/5) (antibody)

Compound: PRM-151: recombinant pentraxin-2
effect on progression of fibrosis (fibrosis): shown even a modest ability to reverse fibrosis in some patients

Compound: O=C(COc1ccc2c(c1)OCO2)NC(=O)NCCc1c[nH]c2ccccc12 [KCH-1521]
adhesion-dependent angiogenesis (talin1 and talin2): decreases adhesion-dependent angiogenesis | distinction between talin1 and talin2 (talin1 and talin2): does not distinguish between talin1 and talin2

Compound: Cc1ccc(=O)n(-c2ccccc2)c1 [pirfenidone]
effect on progression of fibrosis (fibrosis): slow, but do not reverse, the progression of fibrosis

Compound: leukadherin
myofibroblast de-differentiation or differentiation as determined by morphology [6]: promoted myofibroblasts differentiation | αSMA+ collagen I+ double positive cells ([7]; flow cytometry (FIG. 1C)): increased the amount of αSMA^+ collagen I^+ double positive cells | talin2 expression ([7]; flow cytometry (FIG. 1D)): nor integrin interaction promoters (Gi14, leukadherin) significantly altered talin2 expression | secreted MCP1 ([8]; conditioned media after 1 week (FIG. 9A)): promoted the secretion of MCP1 | secreted IL-6 ([8]; conditioned media after 1 week (FIG. 9C)): promoted the secretion of MCP1 (FIG. 9A) and IL-6 | myofibroblast de-differentiation or differentiation by morphology [9]: increased monocyte-derived myofibroblast differentiation | αSMA+ and collagen I+ double positive myofibroblasts ([10]; leukadherin 2 ng/ml (FIG. 2C)): increased both the amount of α αSMA^+ and collagen I^+ double positive monocyte-myofibroblasts | talin2+ cells / talin2 concentration ([10]; leukadherin 2 ng/ml (FIG. 2D)): increasing talin2 concentration in these cells
